Reference: patent publication US20060276468A1, “Wood preservative formulations comprising Imazalil” (priority 2005, published 2006)
“Also recorded” adds a separate entry of the source.

System: decay organisms
Assay: soil contact veneer exposure test: dip-treated Scots pine sapwood veneers half buried in damp compost, pulled by hand weekly until failure
Details: for half life, Low level with 0.8% Imazalil sulfate: 0.8% fungicide plus 0.8% imazalil sulfate, IMS; for average time for failure to occur (half life) / average time for failure to occur (half life), combination with imazalil sulfate / estimated expected average time for failure, combination with imazalil sulfate: Example 1; for average time for failure to occur (half life): biocide alone: 0.6% dichlorophen, 0.2% triclosan, 0.8% fenarimol, 0.8% PHMB, 0.4% imazalil sulfate, 6 veneers; for Half life for fungicide at 2% active ingredient (ai) / estimated expected half life for 1% fungicide plus 1% Imazalil sulfate / Half life for 1% fungicide plus 1% Imazalil sulfate: Example 3; for average time for failure to occur, quat with Imazalil sulfate: 0.18% active quat plus 0.30% imazalil sulfate (Table 3; text b187 says 0.2%); for average time for failure to occur, Quat Only: 0.36% active quat in deionised water; for synergy of the combination with imazalil sulfate: actual versus expected average time to failure; for average time for failure to occur (half life), combination with imazalil sulfate: 0.3% dichlorophen, 0.1% triclosan, 0.4% fenarimol or 0.4% PHMB, each plus 0.2% imazalil sulfate; for estimated expected average time for failure, combination with imazalil sulfate: midway between the two single biocides
Source text: The present invention also provides a simple exposure test for evaluating the wood preserving abilities of candidate ingredients or compositions. This exposure test is based on the premise that small dimension timber test specimens tend to fail more quickly than larger ones in soil contact situations.
It is preferable that the thickness of the veneers be greater than 0.1 mm, as veneers of lesser thickness can often be pulled apart by hand without undergoing exposure to decay organisms. Veneers which are thicker than 0.4 may take an excessive amount of time to fail the exposure test. In one embodiment, the thickness of the veneers is about 0.2 mm and the wood is the sapwood of the Scots pine (Pinus sylvestris). Other woods and thicknesses can be used. […] An example of convenient width and length dimensions are 15×50 mm. However, width and length are not critical provided they are kept consistent within a test, although very large or small length or width dimensions may be difficult to handle.
Accordingly, the test of the present invention comprises testing the integrity of a veneer after exposure to a decay-inducing environment. In one embodiment, this environment is damp compost in which decay organisms are present and water is present at just above the water holding capacity of the compost. If desired, other media can be used, and the test can be conducted at water contents which are below, at, or above the water-holding capacity of the media.
In general, the integrity of the veneer is inversely related to the length of exposure to the decay promoting environment. The integrity of the veneer can be tested by applying a force to the veneer and noting whether or not the veneer breaks. Thus, if wood preservative agents are applied to the veneers, these veneers would be expected to withstand longer exposure to the environment without breaking compared to control veneers without breaking.
The force applied to the veneers is preferably a force which pulls the two ends in opposite directions. The force can be applied by the use of an instrument or manually. If there is significant decay the veneer will break, generally near the junction between the portion submerged in the decay accelerating medium and the portion exposed to air. If the force is applied manually, it is preferable that the same individual conduct the test at the various exposure time points.
The veneers were cut such that both late wood and early wood were present in each veneer. The following biocides were tested: imazalil sulfate, dichlorophen, fenarimol, triclosan, and PHMB. To allow the mixing together of the five selected biocides in any combination the biocides were formulated such that they could be mixed together (all the percentages are mass/mass):
Test solutions were prepared and sets of veneers were dip treated such that there were 6 replicate veneers for each treatment under investigation. Additionally six veneers were dip treated in deionised water to act as water controls. […] Plastic containers (approximately 350×220 mm by at least 60 mm high) were part filled with John Innes Number 2 potting compost at a little above its water holding capacity. The veneers for this particular test were placed in six rows within a container such that approximately half the veneer was below the compost and half above. The veneers were placed in the compost such than those given a particular treatment were distributed throughout the container and were not grouped together. The containers, compost and veneers were weighed then incubated at about 30° C. and near 100% relative humidity in an incubator. Each week during the test the assembly was reweighed and deionised water added to bring it back to its original mass. After 3 weeks each veneer was examined in turn. It was held between the fore finger and thumb at each end and pulled to see if it could be broken. If it could be pulled apart a failure was recorded.

[1] = Example 5, additive expectation
[2] = Example 5, solutions in acetone
[3] = unnumbered table, additive expectation
[4] = unnumbered table, solutions in IMS
[5] = Example 14, 0.6% dichlorophen or 0.4% imazalil sulfate alone
[6] = Example 15, 2.0% alone, solutions in IMS (alcohol)
[7] = Example 16, 0.8% alone, solutions in IMS (alcohol)
[8] = Example 16, 1.6% alone, solutions in IMS (alcohol)
[9] = Example 8, solutions in IMS (alcohol)
[10] = Example 7, solutions in acetone
[11] = Example 10, solutions in IMS (alcohol)

## N#Cc1c(Cl)c(Cl)c(Cl)c(C#N)c1Cl [Chlorothalonil, tetrachloroisophthalonitrile]
[1]
  estimated expected half life for 1% fungicide plus 1% Imazalil: {9.92 weeks}
[2]
  Half life for 1% fungicide plus 1% Imazalil: 10.67 weeks
  Half life for fungicide at 2% ai: 12.17 weeks

## OB(O)O [Boric acid]
Unnumbered table
  half life, Low level with 0.8% Imazalil sulfate: 5.33 weeks
[3]
  expected half life, Low level with 0.8% Imazalil sulfate: {5.57 weeks}
[4]
  half life, High level (1.6%): 4.50 weeks
  half life, Low level (0.8%): 3.83 weeks

## 1H-imidazole,1-(2-(2,4-dichlorophenyl)-2-(2-propenyloxy)ethyl)-, sulfate [Imazalil sulfate]
  average time for failure to occur (half life): 5.17 weeks
Example 2, 0.60% imazalil sulfate alone (Table 3; text b187 says 0.4%)
  average time for failure to occur, No Quat: 5.67 weeks
Solutions in IMS (alcohol)
  Half life for fungicide at 2% active ingredient (ai): 6.00 weeks
Example 4, Table 8 title: solutions in acetone (Table 7: deionised water)
  Half life for fungicide at 2% ai: 7.17 weeks
Example 9, 1.4% BBIT or 0.4% imazalil sulfate alone, formulations which can be mixed together
  half life, No addition: 5.50 weeks
Example 12, Fluid 1, 0.25% imazalil sulfate in deionized water
  Calculated half life: 5.00 weeks
Example 12, Fluid 2, 0.50% imazalil sulfate in deionized water
  Calculated half life: 6.50 weeks
Example 12, Fluid 3, 1.00% imazalil sulfate in deionized water
  Calculated half life: 6.83 weeks
Example 12, Fluid 4, 1.50% imazalil sulfate in deionized water
  Calculated half life: 8.17 weeks
[5]
  half life, No addition: 5.2 weeks
[6]
  half life, No addition: 7.83 weeks
[7]
  Calculated half life: 7.00 weeks
[8]
  Calculated half life: 8.00 weeks
Solutions in IMS
  half life, High level (1.6%): 5.83 weeks
  half life, Low level (0.8%): 5.00 weeks
[4]
  half life, High level (1.6%): 7.00 weeks
  half life, Low level (0.8%): 5.67 weeks

## CCCCCCCCn1sc(Cl)c(Cl)c1=O [RH 287, 4,5-dichloro-2-n-octyl-3(2H)-isothiazolone]
[1]
  estimated expected half life for 1% fungicide plus 1% Imazalil: {15.09 weeks}
[2]
  Half life for 1% fungicide plus 1% Imazalil: 19.33 weeks
  Half life for fungicide at 2% ai: 22.50 weeks

## CCCCCCCCCC[N+](C)(C)CCCCCCCCCC.[Cl-] [DDAC, didecyl dimethyl ammonium chloride]
  half life, Low level with 0.8% Imazalil sulfate: 5.50 weeks
  synergy of the combination with imazalil sulfate: evidence of synergy
Example 2
  average time for failure to occur, quat with Imazalil sulfate: 5.50 weeks
  average time for failure to occur, Quat Only: 4.17 weeks
Additive expectation
  estimated expected half life for 1% fungicide plus 1% Imazalil sulfate: 5.50 weeks
  expected half life, Low level with 0.8% Imazalil sulfate: {5.58 weeks}
Solutions in IMS (alcohol)
  Half life for 1% fungicide plus 1% Imazalil sulfate: 6.50 weeks
  Half life for fungicide at 2% active ingredient (ai): 5.00 weeks
Solutions in IMS
  half life, High level (1.6%): 5.33 weeks
  half life, Low level (0.8%): 5.00 weeks

## Oc1cc(Cl)ccc1Oc1ccc(Cl)cc1Cl [Trichlosan, 5-chloro-2-(2,4-dichlorophenoxy)phenol]
  average time for failure to occur (half life), combination with imazalil sulfate: 5.50 weeks
  average time for failure to occur (half life): ~4.33 weeks
  synergy of the combination with imazalil sulfate: positive synergy
Additive expectation
  estimated expected average time for failure, combination with imazalil sulfate: (4.75) weeks

## N,N-didecyl-N-methyl-poly(oxethyl)ammonium propionate [Bardap 26]
  half life, Low level with 0.8% Imazalil sulfate: 4.83 weeks
  synergy of the combination with imazalil sulfate: approximates that predicted in the case of no synergy
Example 2
  average time for failure to occur, quat with Imazalil sulfate: 5.33 weeks
  average time for failure to occur, Quat Only: 5.00 weeks
Example 2, additive expectation
  estimated expected average time for failure, quat with Imazalil sulfate: 5.34 weeks
Additive expectation
  expected half life, Low level with 0.8% Imazalil sulfate: {5.50 weeks}
Solutions in IMS
  half life, High level (1.6%): 5.17 weeks
  half life, Low level (0.8%): 4.67 weeks

## CCCCCCCCCCCCN(CCCN)CCCN [Triameen Y 12D-30, N,N-bis(3-aminopropyl)dodeclamine]
Example 8, additive expectation
  estimated expected half life, Low level (0.8%) plus 0.8% Imazalil: {5.75 weeks}
[9]
  half life, High level (1.6%): 5.00 weeks
  half life, Low level (0.8%): 4.33 weeks
  half life, Low level (0.8%) plus 0.8% Imazalil: 6.00 weeks

## alkyl dimethyl benzyl ammonium chloride [BAC]
Additive expectation
  estimated expected half life for 1% fungicide plus 1% Imazalil sulfate: 5.59 weeks
Solutions in IMS (alcohol)
  Half life for 1% fungicide plus 1% Imazalil sulfate: 6.17 weeks
  Half life for fungicide at 2% active ingredient (ai): 5.17 weeks
Unnumbered table
  half life, Low level with 0.8% Imazalil sulfate: 6.00 weeks
[3]
  expected half life, Low level with 0.8% Imazalil sulfate: {592 weeks}
[4]
  half life, High level (1.6%): 4.83 weeks
  half life, Low level (0.8%): 4.67 weeks

## CC(C1CC1)C(O)(Cn1cncn1)c1ccc(Cl)cc1 (stereo not drawn) [Cyproconazole, α-(4-chlorophenyl)-α-(1-cyclopropylethyl)-=1H-1,2,4-triazol-1-ethanol]
Example 7, additive expectation
  estimated expected half life, Low level (0.8%) plus 0.8% Imazalil: {5.42 weeks}
[10]
  half life, High level (1.6%): 4.67 weeks
  half life, Low level (0.8%): 4.17 weeks
  half life, Low level (0.8%) plus 0.8% Imazalil: 6.17 weeks
Example 10, 0.8% fungicide plus 0.8% imazalil, IMS (alcohol)
  half life, Low level with 0.8% Imazalil: 6.17 weeks
Example 10, additive expectation
  estimated expected half life, Low level with 0.8% Imazalil: (5.42 weeks)
[11]
  half life, High level (1.6%): 4.67 weeks
  half life, Low level (0.8%): 4.17 weeks

## Poly(hexamethylenebiguanide)hydrochloride [PHMB]
  average time for failure to occur (half life), combination with imazalil sulfate: 5.17 weeks
  average time for failure to occur (half life): 4.83 weeks
  synergy of the combination with imazalil sulfate: positive synergy
Additive expectation
  estimated expected average time for failure, combination with imazalil sulfate: (5.00) weeks

## Oc1ccc(Cl)cc1Cc1cc(Cl)ccc1O [Dichlorophen, 2,2′-methylenebis[4-chlorophenol]]
  average time for failure to occur (half life): 9.50 weeks
  synergy of the combination with imazalil sulfate: positive synergy; also recorded: exceeded the expected value
Additive expectation
  estimated expected half life for 1% fungicide plus 1% Imazalil sulfate: 12.92 weeks
Solutions in IMS (alcohol)
  Half life for 1% fungicide plus 1% Imazalil sulfate: 15.33 weeks
  Half life for fungicide at 2% active ingredient (ai): 19.83 weeks
Example 14, 0.3% dichlorophen plus 0.2% imazalil sulfate
  half life, With Imazalil sulfate: 11.2 weeks
[5]
  half life, No addition: 9.5 weeks
Example 14, additive expectation
  expected half life, With Imazalil sulfate: {7.4 weeks}
Example 15, 1.0% dichlorophen plus 1.0% imazalil sulfate, IMS (alcohol)
  half life, With Imazalil sulfate: 19.67 weeks
[6]
  half life, No addition: 17.00 weeks
Example 15, additive expectation
  expected half life, With Imazalil sulfate: {12.42 weeks}
[7]
  Calculated half life: 11.33 weeks
Example 16, 0.8% dichlorophen plus 0.8% imazalil sulfate, IMS (alcohol)
  Calculated half life: 13.00 weeks
Example 16, 0.8% dichlorophen plus 0.8% imazalil sulfate, additive expectation
  expected half life: {11.25 weeks}
[8]
  Calculated half life: 14.50 weeks
